From ChEMBL document CHEMBL3882724 (2013)

How the values were obtained:
[1] = Half life in human liver microsomes at 1 uM by LC-MS/MS analysis
[2] = target: T1, Steroid 17-alpha-hydroxylase/17,20 lyase (Homo sapiens, UniProt P05093); assay: Inhibition of CYP17 in human testicular microsomes using 17alpha-hydroxypregnenolone as substrate assessed as decrease in DHEA levels after 90 mins by ELISA; parameters: species or system Testis
T1 sequence (P05093 whole entry): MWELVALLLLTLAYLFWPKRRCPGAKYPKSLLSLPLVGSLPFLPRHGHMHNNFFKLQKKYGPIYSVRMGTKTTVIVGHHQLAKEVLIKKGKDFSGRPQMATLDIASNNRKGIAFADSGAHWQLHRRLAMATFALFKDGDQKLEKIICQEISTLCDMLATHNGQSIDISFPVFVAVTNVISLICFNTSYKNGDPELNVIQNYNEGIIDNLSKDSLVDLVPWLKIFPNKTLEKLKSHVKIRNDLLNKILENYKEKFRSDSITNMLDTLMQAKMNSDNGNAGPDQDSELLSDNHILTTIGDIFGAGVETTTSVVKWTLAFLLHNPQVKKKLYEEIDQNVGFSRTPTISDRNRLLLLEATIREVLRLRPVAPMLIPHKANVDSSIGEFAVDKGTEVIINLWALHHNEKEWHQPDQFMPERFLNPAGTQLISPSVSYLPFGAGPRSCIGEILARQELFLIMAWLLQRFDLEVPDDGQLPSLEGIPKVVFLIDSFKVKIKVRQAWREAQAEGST

[3] = target: T1, Steroid 17-alpha-hydroxylase/17,20 lyase; assay: Inhibition of CYP17 in human testicular microsomes using 17alpha-hydroxypregnenolone as substrate assessed as decrease in DHEA levels at 1 nM after 90 mins by ELISA relative to control; parameters: species or system Testis
[4] = target: T2, CYP21 (steroid 21-hydroxylase) (Homo sapiens, UniProt P08686); assay: Inhibition of human CYP21 transfected in HEK293 cells assessed as decrease in conversion of progesterone to 11-deoxycorticosterone preincubated for 5 hrs followed by progesterone addition measured after 20 hrs by ELISA; format: cell-based; parameters: concentration or dose not given beside the values; details: HEK293 cells transfected with human CYP21, probe progesterone
T2 sequence (P08686 whole entry): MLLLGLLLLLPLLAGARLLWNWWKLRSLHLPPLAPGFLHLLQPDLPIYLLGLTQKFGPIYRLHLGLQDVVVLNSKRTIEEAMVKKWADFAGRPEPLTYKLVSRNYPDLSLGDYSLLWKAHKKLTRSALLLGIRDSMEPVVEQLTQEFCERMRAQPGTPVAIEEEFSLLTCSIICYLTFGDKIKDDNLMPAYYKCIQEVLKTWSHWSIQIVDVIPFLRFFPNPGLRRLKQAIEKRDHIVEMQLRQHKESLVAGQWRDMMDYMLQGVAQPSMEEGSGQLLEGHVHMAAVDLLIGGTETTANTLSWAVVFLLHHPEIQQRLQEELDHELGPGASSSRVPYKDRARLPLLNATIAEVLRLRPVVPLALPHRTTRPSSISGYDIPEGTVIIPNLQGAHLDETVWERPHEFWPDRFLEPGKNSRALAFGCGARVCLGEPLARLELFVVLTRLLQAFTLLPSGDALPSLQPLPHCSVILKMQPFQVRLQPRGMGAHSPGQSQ

[5] = target: T1, Steroid 17-alpha-hydroxylase/17,20 lyase; assay: Inhibition of CYP17 in human H295R cells assessed as decrease in testosterone levels after 24 hrs by ELISA; format: cell-based
[6] = target: T1, Steroid 17-alpha-hydroxylase/17,20 lyase; assay: Inhibition of CYP17 in human testicular microsomes using 17alpha-hydroxypregnenolone as substrate assessed as decrease in DHEA levels at 10 nM after 90 mins by ELISA relative to control; parameters: species or system Testis; details: 1.5 h

SMILES: C[C@]12CC[C@H]3[C@@H](C=CC4=CC(=O)CC[C@@]43C)C1=CC=C2c1cccnc1
- half-life at 1 µM [1]: 1 to 50 min
- IC50 [2]: ≤ 11 nM
- IC50 [3]: 10 to 100 nM
- inhibition at 20 h [4]: ≥ 50%

SMILES: C[C@]12CCNC(=O)C=C1C1(CC1)C[C@@H]1[C@@H]2CC[C@]2(C)C(c3cccnc3)=CC[C@@H]12
- half-life at 1 µM [1]: 1 to 50 min
- IC50 [2]: ≤ 11 nM
- IC50 [5]: ≤ 15 nM
- IC50 [3]: ≤ 10 nM
- inhibition at 20 h [4]: 10 to 50%

SMILES: C[C@]12CC[C@H]3[C@@H](CCC4=CC(=O)NCC[C@@]43C)C1=CC=C2c1cncc(F)c1
- half-life at 1 µM [1]: 1 to 50 min
- IC50 [5]: ≤ 15 nM
- IC50 [3]: > 100 nM
- inhibition at 20 h [4]: 10 to 50%

SMILES: C[C@]12CCC(=O)C=C1C=C[C@@H]1[C@@H]2CC[C@]2(C)C(c3cccnc3)=CC[C@@H]12
- half-life at 1 µM [1]: 1 to 50 min
- IC50 [3]: > 100 nM
- inhibition at 20 h [4]: ≥ 50%

SMILES: C[C@]12CCC(=O)C=C1C1(CC1)C[C@@H]1[C@@H]2CC[C@]2(C)C(c3cccnc3)=CC[C@@H]12
- half-life at 1 µM [1]: 1 to 50 min
- IC50 [2]: ≤ 11 nM
- IC50 [5]: ≤ 15 nM
- IC50 [3]: ≤ 10 nM
- inhibition at 20 h [4]: ≥ 50%

SMILES: CC1C[C@H]2C3=CC=C(c4cncc(F)c4)[C@@]3(C)CC[C@@H]2[C@@]2(C)CCC(=O)C=C12 (some centres undefined)
- half-life at 1 µM [1]: 1 to 50 min
- IC50 [5]: ≤ 15 nM
- IC50 [3]: ≤ 10 nM
- inhibition at 20 h [4]: 10 to 50%

SMILES: CC1C[C@H]2C3=CC=C(c4cncc(F)c4)[C@@]3(C)CC[C@@H]2[C@@]2(C)CCNC(=O)C=C12 (some centres undefined)
- half-life at 1 µM [1]: 1 to 50 min
- IC50 [3]: 10 to 100 nM
- inhibition at 20 h [4]: 10 to 50%

SMILES: C[C@]12CCC(=O)C=C1C1CC1[C@@H]1[C@@H]2CC[C@]2(C)C(c3cccnc3)=CC[C@@H]12 (some centres undefined)
- half-life at 1 µM [1]: 1 to 50 min
- IC50 [3]: > 100 nM
- inhibition at 20 h [4]: ≥ 50%

SMILES: C[C@]12CC[C@H]3[C@@H](C=CC4=C(O)C(=O)CC[C@@]43C)C1=CC=C2c1cccnc1
- half-life at 1 µM [1]: 1 to 50 min
- IC50 [3]: > 100 nM
- inhibition at 20 h [4]: ≥ 50%

SMILES: CC1C[C@@H]2[C@H](CC[C@]3(C)C(c4cccnc4)CC[C@@H]23)[C@@]2(C)CCNC(=O)C=C12 (some centres undefined)
- half-life at 1 µM [1]: 1 to 50 min
- IC50 [3]: ≤ 10 nM

SMILES: C[C@]12CCNC(=O)C=C1C1CC1[C@@H]1[C@@H]2CC[C@]2(C)C(c3cccnc3)=CC[C@@H]12 (some centres undefined)
- half-life at 1 µM [1]: 1 to 50 min
- IC50 [2]: ≤ 11 nM
- IC50 [3]: > 100 nM
- inhibition at 20 h [4]: ≥ 50%

SMILES: C[C@]12CC[C@H]3[C@@H](CCC4=CC(=O)C=C[C@@]43C)C1=CC=C2c1cccnc1
- half-life at 1 µM [1]: 1 to 50 min
- IC50 [2]: ≤ 11 nM
- IC50 [5]: ≤ 15 nM
- IC50 [3]: 10 to 100 nM
- inhibition at 20 h [4]: ≥ 50%

SMILES: C=C1C[C@@H]2[C@H](CC[C@]3(C)C(c4cccnc4)=CC[C@@H]23)[C@@]2(C)CCC(=O)C=C12
- half-life at 1 µM [1]: 1 to 50 min
- IC50 [2]: ≤ 11 nM
- IC50 [5]: ≤ 15 nM
- IC50 [3]: 10 to 100 nM
- inhibition at 20 h [4]: ≥ 50%

SMILES: C[C@]12CC[C@H]3[C@@H](CCC4=CC(=O)CC[C@@]43C)C1=CC=C2c1cncc(F)c1
- half-life at 1 µM [1]: 1 to 50 min
- IC50 [2]: ≤ 11 nM
- IC50 [5]: ≤ 15 nM
- IC50 [3]: 10 to 100 nM
- inhibition at 20 h [4]: ≥ 50%

SMILES: CC1C[C@H]2C3=CC=C(c4cccnc4)[C@@]3(C)CC[C@@H]2[C@@]2(C)C=CC(=O)C=C12 (some centres undefined)
- half-life at 1 µM [1]: 1 to 50 min
- inhibition at 0.01 µM [6]: ≥ 80%
- IC50 [3]: ≤ 10 nM
- inhibition at 20 h [4]: ≥ 50%

SMILES: C[C@]12CC[C@H]3[C@@H](CCC4=CC(=O)CC[C@@]43C)C1=CC=C2c1cncnc1
- half-life at 1 µM [1]: 1 to 50 min
- IC50 [2]: ≤ 11 nM
- IC50 [3]: 10 to 100 nM
- inhibition at 20 h [4]: ≥ 50%

SMILES: CCC1C[C@H]2C3=CC=C(c4cccnc4)[C@@]3(C)CC[C@@H]2[C@@]2(C)CCC(=O)C=C12 (some centres undefined)
- half-life at 1 µM [1]: 1 to 50 min
- IC50 [2]: ≤ 11 nM
- IC50 [3]: 10 to 100 nM
- inhibition at 20 h [4]: 10 to 50%

SMILES: CC1C[C@@H]2[C@H](CC[C@]3(C)C(c4cccnc4)=CC[C@@H]23)[C@@]2(C)CCC(=O)C=C12 (some centres undefined)
- half-life at 1 µM [1]: 1 to 50 min
- IC50 [2]: ≤ 11 nM
- IC50 [5]: ≤ 15 nM
- IC50 [3]: 10 to 100 nM
- inhibition at 20 h [4]: ≥ 50%

SMILES: CC1C[C@@H]2[C@H](CC[C@]3(C)C(c4cccnc4)=CC[C@@H]23)[C@@]2(C)C=CC(=O)C=C12 (some centres undefined)
- half-life at 1 µM [1]: 1 to 50 min
- IC50 [5]: ≤ 15 nM
- IC50 [3]: ≤ 10 nM
- inhibition at 20 h [4]: ≥ 50%

SMILES: C=C1C[C@@H]2[C@H](CC[C@]3(C)C(c4cncc(F)c4)=CC[C@@H]23)[C@@]2(C)C=CC(=O)C=C12
- half-life at 1 µM [1]: 1 to 50 min
- IC50 [2]: ≤ 11 nM
- IC50 [5]: ≤ 15 nM
- IC50 [3]: > 100 nM

SMILES: C[C@]12C=CC(=O)C=C1C1(CC1)C[C@@H]1[C@@H]2CC[C@]2(C)C(c3cccnc3)=CC[C@@H]12
- half-life at 1 µM [1]: 1 to 50 min
- IC50 [2]: ≤ 11 nM
- IC50 [5]: ≤ 15 nM
- IC50 [3]: ≤ 10 nM
- inhibition at 20 h [4]: 10 to 50%

SMILES: CC1C[C@@H]2[C@H](CC[C@]3(C)C(c4cncc(F)c4)=CC[C@@H]23)[C@@]2(C)CCC(=O)C=C12 (some centres undefined)
- IC50 [2]: ≤ 11 nM
- IC50 [5]: ≤ 15 nM
- IC50 [3]: > 100 nM
- inhibition at 20 h [4]: ≥ 50%

SMILES: CC1C[C@@H]2[C@H](CC[C@]3(C)C(c4cccnc4)=CC[C@@H]23)[C@@]2(C)CC/C(=N\O)C=C12 (some centres undefined)
- half-life at 1 µM [1]: 1 to 50 min
- IC50 [3]: > 100 nM
- inhibition at 20 h [4]: 10 to 50%

SMILES: CC1C[C@H]2C3=CC=C(c4cccnc4)[C@@]3(C)CC[C@@H]2[C@@]2(C)CCC(=O)C=C12 (some centres undefined)
- half-life at 1 µM [1]: 1 to 50 min
- IC50 [2]: ≤ 11 nM
- IC50 [3]: ≤ 10 nM
- inhibition at 20 h [4]: ≥ 50%

SMILES: CC1C[C@@H]2[C@H](CC[C@]3(C)C(c4cccnc4)CC[C@@H]23)[C@@]2(C)C=CC(=O)C=C12 (some centres undefined)
- half-life at 1 µM [1]: 1 to 50 min
- IC50 [2]: ≤ 111 nM
- IC50 [3]: ≤ 10 nM

SMILES: C=C1CC2[C@H](CC[C@]3(C)C(c4cccnc4)=CC[C@@H]23)C2(C)C=CC(=O)C=C12 (single isomer, unassigned)
- half-life at 1 µM [1]: 1 to 50 min
- IC50 [2]: ≤ 11 nM
- IC50 [5]: ≤ 15 nM
- IC50 [3]: ≤ 10 nM
- inhibition at 20 h [4]: ≥ 50%
